# Experimental data: patent US9200005B2, “Inhibitor compounds of phosphodiesterase type 10A” (AbbVie Deutschland GmbH & Co. KG, priority 2013, dated 2015)
# Legend:
# [1] = system: rats; conditions: cited from earlier work
# [2] = system: rats; conditions: PCP (WO 03/093499); cited from earlier work
# [3] = system: rats; conditions: amphetamine (WO 03/093499); cited from earlier work
# [4] = target: PDE10A (UniProt Q9Y233); experiment: Measurement of PDE activity (HTRF cAMP kit, recombinant PDE10A); type: biochemical, human, rat and mouse; conditions: substrate 20 nM, 60 minutes at 29° C.
# [5] = Determination of the microsomal half-life / microsomal clearance, human liver microsomes; type: in vitro ADME; conditions: 0.5 μM test substance, 0.25 mg of microsomal protein/mL, NADPH, 37° C.
# Procedure, shortened: (§1)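 Compound (0.5 μM) was preincubated 5 min at 37 °C with rat or human liver microsomes (0.25 mg protein/mL) in 0.05 M phosphate pH 7.4, and NADPH (1 mg/mL) was then added. Samples taken at 0-30 min and quenched with acetonitrile were analysed by MS/MS. T½ was derived assuming first-order decay, and clearance […] was calculated from T½ and protein content.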
# [6] = Determination of the microsomal half-life / microsomal clearance, rat liver microsomes; type: in vitro ADME; conditions: 0.5 μM test substance, 0.25 mg of microsomal protein/mL, NADPH, 37° C.
# Procedure, shortened: as §1
SMILES,IC50 [4] [nM],Human mCl [5],Rat mCl [6],catalepsy on its own ([1]; alone (WO 03/093499)),cataleptic effect of the D2 receptor antagonist haloperidol ([1]; with haloperidol (WO 03/093499)),hyperactivity in rats induced by PCP [2],reduction of amphetamine-induced hyperactivity [3]
"COc1ccc(Cc2nccc3cc(OC)c(OC)cc23)cc1OC [Papaverine, papaverine]",,,,did not cause catalepsy,potentiated,reduced,insignificant
"COc1ccccc1Oc1nn(C)c(=O)c2c(-c3ccncc3)csc12.O=C(O)C(F)(F)F [Example 84, 7-(2-methoxyphenoxy)-5-methyl-3-(pyridin-4-yl)thieno[2,3-d]pyridazin-4(5H)-one trifluoroacetate]",100 to 200,++ (++: <100 μl min^−1 mg^−1),∘ (∘ not avialable or >220 μl min^−1 mg^−1),,,,
"Cn1nc(OCc2ccccn2)c2scc(-c3ccncc3)c2c1=O [Example 55, 5-methyl-3-(pyridin-4-yl)-7-(pyridin-2-ylmethoxy)thieno[2,3-d]pyridazin-4(5H)-one]",100 to 200,++ (++: <100 μl min^−1 mg^−1),+ (+: 100-220 μl min^−1 mg^−1),,,,
"Cc1ncc(-c2csc3c(-c4ccncc4)nn(CC(F)(F)F)c(=O)c23)cn1 [Example 128, 3-(2-methylpyrimidin-5-yl)-7-(pyridin-4-yl)-5-(2,2,2-trifluoroethyl)thieno[2,3-d]pyridazin-4(5H)-one]",200 to 500,++ (++: <100 μl min^−1 mg^−1),++ (++: <100 μl min^−1 mg^−1),,,,
"Cn1nc(-c2ccncc2)c2scc(-c3ccncc3)c2c1=O [Example 130, 5-methyl-3,7-di(pyridin-4-yl)thieno[2,3-d]pyridazin-4(5H)-one]",100 to 200,++ (++: <100 μl min^−1 mg^−1),++ (++: <100 μl min^−1 mg^−1),,,,
"COc1cncc(Oc2nn(C)c(=O)c3c(-c4ccncc4)csc23)c1.O=C(O)C(F)(F)F.O=C(O)C(F)(F)F [Example 88, 7-[(5-methoxypyridin-3-yl)oxy]-5-methyl-3-(pyridin-4-yl)thieno[2,3-d]pyridazin-4(5H)-one bis(trifluoroacetate)]",< 100,++ (++: <100 μl min^−1 mg^−1),++ (++: <100 μl min^−1 mg^−1),,,,
"Cn1nc(Oc2ccc3c(c2)OCO3)c2scc(-c3ccncc3)c2c1=O [Example 89, 7-(1,3-benzodioxol-5-yloxy)-5-methyl-3-(pyridin-4-yl)thieno[2,3-d]pyridazin-4(5H)-one]",200 to 500,++ (++: <100 μl min^−1 mg^−1),+ (+: 100-220 μl min^−1 mg^−1),,,,

# Second part, led by results:
IC50 [4] [nM],Human mCl [5],Rat mCl [6],SMILES,catalepsy on its own ([1]; alone (WO 03/093499)),cataleptic effect of the D2 receptor antagonist haloperidol ([1]; with haloperidol (WO 03/093499)),hyperactivity in rats induced by PCP [2],reduction of amphetamine-induced hyperactivity [3]
< 100,++ (++: <100 μl min^−1 mg^−1),+ (+: 100-220 μl min^−1 mg^−1),"CC(Oc1nn(C)c(=O)c2c(-c3ccncc3)csc12)c1nc2ccccc2n1C (stereo not shown) [Example 78, 5-methyl-7-[1-(1-methyl-1H-benzimidazol-2-yl)ethoxy]-3-(pyridin-4-yl)thieno[2,3-d]pyridazin-4(5H)-one]",,,,
< 100,++ (++: <100 μl min^−1 mg^−1),++ (++: <100 μl min^−1 mg^−1),"CCn1nc(-c2ccncc2)c2scc(-c3ccncc3)c2c1=O [Example 136, 5-ethyl-3,7-di(pyridin-4-yl)thieno[2,3-d]pyridazin-4(5H)-one]",,,,
< 100,+ (+: 100-220 μl min^−1 mg^−1),++ (++: <100 μl min^−1 mg^−1),"COc1cc(COc2nn(C)c(=O)c3c(-c4ccncc4)csc23)cc(OC)c1 [Example 75, 7-[(3,5-dimethoxybenzyl)oxy]-5-methyl-3-(pyridin-4-yl)thieno[2,3-d]pyridazin-4(5H)-one]",,,,
< 100,++ (++: <100 μl min^−1 mg^−1),++ (++: <100 μl min^−1 mg^−1),"CCn1nc(-c2ccncc2)c2scc(-c3cncnc3)c2c1=O [Example 145, 5-ethyl-7-(pyridin-4-yl)-3-(pyrimidin-5-yl)thieno[2,3-d]pyridazin-4(5H)-one]",,,,
< 100,++ (++: <100 μl min^−1 mg^−1),++ (++: <100 μl min^−1 mg^−1),"Cn1nc(-c2ccc(C#N)cc2)c2scc(-c3ccncc3)c2c1=O [Example 95, 4-[5-methyl-4-oxo-3-(pyridin-4-yl)-4,5-dihydrothieno[2,3-d]pyridazin-7-yl]benzonitrile]",,,,
